From US20100254928A1, “NOVEL COMPOSITION CONTAINING OZONIZED SURFACTANT” (priority 2007, published 2010)

Columns and labels:
Escherichia coli [1] = test: Minimum inhibitory concentration test; format: cell-based; details: 24 h, 30° C., 1 × 10^7/mL
Text: In order to check the antimicrobial and antifungal performance of the ozonized surfactant, bacteriostatic and bactericidal effects of the ozonized surfactant against five kinds of microorganisms were examined. The five kinds of target microorganisms were Staphylococcus aureus as a prokaryotic gram-positive bacterium, Escherichia coli as a prokaryotic gram-negative bacterium, Saccharomyces cerevisiae and Trichophyton mentagrophytes as fungi which are eukaryotic microorganisms, and Cladosporium cladosporioides. One loopful of each strain was inoculated in a medium optimum for the strain, and cultured under culture conditions optimum for the strain to prepare a cell suspension for inoculation.
The solution A obtained in Example 4 was placed in test tubes, and was then diluted with sterilized water 2-, 4-, 8-, 16-, 32-, 64-, 128-, 256-, and 512-fold to prepare 10 levels of diluted ozonized surfactant solutions. Into L-shaped test tubes for a biophotorecorder, 9 mL of each medium shown in Table 1 was dispensed and sterilized by steam. Then, 1 mL of each of the 10 levels of diluted ozonized surfactant solutions was added aseptically to the L-shaped test tubes to prepare 10 mL of 10-, 20-, 40-, 80-, 160-, 320-, 640-, 1280-, 2560-, and 5120-fold diluted solutions of the solution A (hereinafter, referred to as a “graduated dilution series to be tested”). Into the graduated dilution series to be tested, 0.1 mL of the cell suspension for inoculation was inoculated (the initial number of cells of each microorganism is shown in Table 1). The L-shaped test tubes into which the cell suspension had been inoculated were set in a biophotorecorder (made by Advantec Toyo Kaisha, Ltd.) and subjected to shaking culture (30 rpm) under conditions shown in Table 1. The test tubes to be used were sterilized by dry heat (165° C. for 1 hour), and the media, sterilized water, and tools were sterilized by steam in an autoclave (121° C. for 15 minutes). In the following tests, they were sterilized in the same manner.
Another graduated dilution series was prepared between the temporary minimum inhibitory concentration and the concentration of the ozonized surfactant nearest to the temporary minimum inhibitory concentration, at which turbidity occurred. Then, the same operation as described above was again carried out. […] This MIC test against these five kinds of microorganisms was carried out also using, as a control, the surfactant solution before ozone treatment.

[2] = test system: Cladosporium cladosporioides; test: Minimum bactericidal concentration test; format: cell-based; details: 96 h, 25° C.
Protocol: (§1) Here, the ozonized surfactant was diluted 100-fold, and therefore the ozonized surfactant was considered to be ineffective. […] [table]

Escherichia coli [3] = test: Minimum bactericidal concentration test; format: cell-based; details: 24 h, 30° C.
Protocol: as §1

Saccharomyces cerevisiae = test: Minimum bactericidal concentration test; format: cell-based; details: 48 h, 28° C.
Protocol: as §1

Staphylococcus aureus [4] = test: Minimum bactericidal concentration test; format: cell-based; details: 24 h, 37° C.
Protocol: as §1

[5] = test system: Trichophyton mentagrophytes; test: Minimum bactericidal concentration test; format: cell-based; details: 96 h, 25° C.
Protocol: as §1

[6] = test system: mold (filamentous fungus); test: Evaluation of antiseptic activity in thickener solution; format: cell-based; details: 0.1% in 3.5% Carbopol ETD2020 aqueous solution, 25° C.
Protocol: In order to check the antiseptic performance of ozonized surfactants, the ozonized surfactants were added to a substance susceptible to mold. […] Into a 100 mL-glass bottle, 50 mL of the sample was charged. The bottles were kept at 25° C. in a thermostatic air chamber, and temporal changes were visually observed. […] The mold-like material was removed and examined under a 700-power microscope. As a result, spores were detected and the material was identified as a filamentous fungus. The above results confirmed the antiseptic activity of the ozonized surfactants.

Escherichia coli [7] = test: Sterilizing activity value test; format: cell-based; details: 0.5% aqueous solution, contact time 5 min, 25 ± 1° C., vs 0.05 (w/v %) Polysorbate 80 control
Protocol: (§2) In order to check the effect of the ozonized surfactant as a sterilizing detergent, a sterilizing activity test was performed. A 0.5% aqueous solution of the solution obtained in Example 4 was tested based on the sterilizing activity test of home care synthetic detergents and soaps, which is a method set by Detergent and Soap Fair Trade Council. […] Each of the control solution and the test sample solutions described in the table below is applied to a test specimen to which bacteria have been inoculated beforehand. After letting the specimens stand for a certain period of time, the viable bacteria count on each specimen is measured. The sterilizing activity value is obtained by subtracting the common logarithm value of the viable bacteria count on the specimen treated with a test sample from the common logarithm value of the viable bacteria count on the specimen treated with the control. […] In a predetermined period of time, an inactivator is applied to inactivate the property suppressing the growth of bacteria and the property killing bacteria, and subsequently the viable bacteria count on the specimen is determined. […]

Staphylococcus aureus [8] = test: Sterilizing activity value test; format: cell-based; details: 0.5% aqueous solution, contact time 5 min, 25 ± 1° C., vs 0.05 (w/v %) Polysorbate 80 control
Protocol: as §2

slug = test: Insecticidal activity: test of killing slugs; format: in vivo; details: 1% aqueous solution, 2 pushes: 1.88 mL sprayed from 15 cm above
Protocol: In order to check the insect control performance of the ozonized surfactant, a test of killing slugs was performed. A slug was put into a glass petri dish. Onto the slug, a 1% aqueous solution of the ozonized surfactant obtained in Example 4, 5, 7, 9 or 10 (2 pushes: 1.88 mL) was sprayed from 15 cm above. After that, the time elapsed until the slug died (the motion stopped) was measured. As a control, the same evaluation was simultaneously performed with a commercial insecticide (product name: NEW Namekuji (slug) Spray, made by Sumitomo Chemical Garden Products Inc., Lot No. 11.05 0806JE) containing a natural substituted phenol, a copper compound and an alcohol, as active ingredients.

insects such as ants = test: Repellent activity (Test Example 14); format: in vivo, pill bug; details: 8 hours
Protocol: The repellent performance of the ozonized surfactant of the present invention was checked. […] In addition, 1 g of honey was instilled into the center. […] These specimens were placed on leaf mold in a flower bed, and the conditions were observed 8 hours later.

Ozonized POE (10 EO) oleyl ether [Example 4]
Minimum inhibitory concentration (Escherichia coli [1]): 0.25%
Minimum bactericidal concentration [2]: 0.18%
Minimum bactericidal concentration (Escherichia coli [3]): 0.30%
Minimum bactericidal concentration (Saccharomyces cerevisiae): 0.03%
Minimum bactericidal concentration (Staphylococcus aureus [4]): 0.11%
Minimum bactericidal concentration [5]: 0.03%
Antiseptic activity of thickener soln. (visually observed), 1 month after [6]: Good
Antiseptic activity of thickener soln. (visually observed), 1 week after [6]: Good
sterilizing activity value (Escherichia coli [7]): 4.6
sterilizing activity value (Staphylococcus aureus [8]): 2.8
Death time of slug (slug): 564 s
insects gathered on the specimen (insects such as ants; 2 mL of 1% aqueous solution on tissue paper with 1 g honey): did not gather at all
insects gathered on the specimen (insects such as ants; 2 mL of 10% aqueous solution on tissue paper with 1 g honey): did not gather at all
